Test results as given in US7919127B2, “Pulsatilla spp. extracts effective in brain function” (priority 2005, dated 2011).
Several values for one entry are separate records, joined by “and”; a condition that tells them apart may be missing. Equal values may be shown once.

How the values were obtained:
α-secretase = test: Increase of α-secretase activity (sAPPα amount, western blot densitometry, W4 cell line); assay type: cell-based; conditions: positive control, final concentration 1 mM, W4 cells, negative control average = 100.0
Protocol: To study the effect of 70% methanol solution fraction obtained from Example 2 on the above-mentioned APP process, an experiment was conducted as follows using W4 cell line which produces APP in large amount.
The cells of W4 cell line were treated with 70% methanol solution fraction and then cultured for about 12 hours.

[1] = test system: rats treated with scopolamine; test: Passive avoidance test, scopolamine-induced memory impairment; assay type: in vivo, rat; conditions: oral, 30 mg/L; untreated control = 100%, scopolamine group = 0%
From the text: The experimental device used was a shuttle box 50 cm (W)×15 cm (L)×40 cm (H). The shuttle box was divided into two rooms via a guillotine door, where one room was a light room provided with illumination while the other room was a dark room covered entirely with a black cloth thereby allowing the difference in illuminating effect. First, a rat was placed in the light room and the guillotine door was opened while the light was being turned on. Then, the rat entered the dark room within 20 seconds to seek a dark place by instinct and as soon as the rat entered the dark room the guillotine door was closed. […] The next day, the above trained rats were placed again into the light room with the light on and allowed to enter the dark room. Here, the rats were subject to an electric shock of 0.8 mA for 3 seconds via an electronic grid installed on the bottom of the room. Twenty four hours after the above acquisition trial, the rats were again placed into the light room with the light on and allowed to enter the dark room. Here, the normal rats hesitated to enter the dark room by remembering the electric shock of the previous day. The latency time was measured by setting up the maximum latency time at 300 seconds. […]

SMILES | Relative Density (sAPPα), Average (α-secretase; average of 3 trials) | Relative Density (sAPPα) (α-secretase; individual trials) | prevention of memory impairment [1]
CCCC(=O)O[C@@H]1[C@@H](C)[C@@]2(O)[C@@H](C=C(CO)C[C@]3(O)C(=O)C(C)=C[C@@H]23)[C@@H]2C(C)(C)[C@]12OC(=O)CCC [PDBu, Phorbol 12,13-dibutyrate] | 289.3 | 226.5 and 314.1 and 327.2 | –
Nc1c2c(nc3ccccc13)CCCC2 [tacrine] | – | – | 35%
